Experimental data as given in patent publication US20240058344A1, “METHODS OF TREATING NEURODEGENERATIVE DISORDERS AND STAT3-LINKED CANCERS USING SUPPRESSORS OF ELECTRON LEAK” (Cornell University, priority 2020, published 2024).

Tested on: astrocytic H2O2 production
Test: Released H2O2 from primary astrocytes (Amplex UltraRed)
Type: cell-based, mice
Settings: S3QEL2 20 μM, S3QEL1.2 1 μM, approximately 24 h
Description: (FIG. 17A) Astrocytes isolated from P2-P3 mice were treated with A1 cocktail consisting of 30 ng/ml TNF-α, 3 ng/ml IL-1α, and 400 ng/ml Clq, and S3QEL1.2 (3 μM) or vehicle for approximately 6 h and analyzed by Western blotting. Phospho-STAT3 levels were normalized to total STAT3 per sample. n=6 wells per condition. **p<0.01, ***p<0.001, one-way ANOVA with Dunnett's multiple comparisons test. (FIG. 17B) Astrocytes isolated from P2-P3 mice were treated with A1 cocktail consisting of 30 ng/ml TNF-α, 3 ng/ml IL-1α, and 400 ng/ml Clq for 24 h, and analyzed for levels of released H2O2 using Amplex UltraRed, a fluorogenic substrate that is a highly sensitive indicator of H2O2, in the presence of horseradish peroxidase and superoxide dismutase. n=6 wells per condition. *p=0.01, Student's t test. (FIG. 17C) Astrocytes isolated from P2-P3 mice were treated with vehicle or 3 ng/ml IL-1α and either S3QEL2 (20 μM), S3QEL1.2 (1 μM), or vehicle for approximately 24 h, and analyzed for levels of released H2O2 using Amplex UltraRed. n=6 wells per condition. *p<0.05, **p<0.01, ***p<0.001, two-way ANOVA with Bonferroni's multiple comparisons test. […]

CCCN(CCC)c1ncnc2c1cnn2-c1ccc(C)c(C)c1 [S3QEL2]
Increases in astrocytic H2O2 levels induced by IL-1α (IL-1α 3 ng/ml): suppressed the increases | Baseline astrocytic H2O2 levels (vehicle): minimal effects
